Results: patent publication US20030207830A1, “Mutant NDP kinases for antiviral nucleotide analog activation and therapeutic uses thereof” (priority 2002, published 2003)
Residue numbers refer to the chain shown, from its start. Numbers in names are those of the source.

What was measured:
[1] = system: human pancreatic adenocarcinoma cell lines; conditions: 4-fold overexpression of mitochondrial deoxyguanosine kinase; cited from earlier work
[2] = biological target: T1, Dictyostelium NDP Kinase wt (Dictyostelium discoideum, UniProt P22887); test: Pre-steady-state fluorescence stopped-flow phosphotransfer from nucleoside triphosphates, wild type Dd-NDPK; assay type: biochemical; conditions: average of three determinations
T1 construct: made in house
Procedure: (§1) The binding constants were determined at equilibrium by recording the increase in fluorescence (Schneider, 2000).
After mixing NDPK (1 μM) and NTP or an analogTP (10-500 μM), the intrinsic protein fluorescence was recorded for 10-200 sec. In each experiment, 400 pairs of data were recorded, and the data from 3-4 identical experiments were averaged and fitted to a number of non-linear analytical equations using the software provided by Hi-Tech.
(§2) The data were analyzed using the reaction scheme: [drawing 1]
The rate of this observed single step is: [formula]
(§3) and reaches a limiting value (k+2) at NTP saturation. […] Therefore, catalytic efficiencies of phosphorylation (CEphos=k+2/(k−1/k+1)=k+2/KS) were measured, which are equivalent to second order constants and allow a reliable comparison of a variety of NDP kinase substrates.

[3] = biological target: T2, Dictyostelium discoideum NDP kinase inactive variant EI (H122G-F64W) (Dictyostelium discoideum, UniProt P22887, F64W/H122G); test: biochemical; assay type: binding
T2 construct: made in house
Procedure: as §1
(§4) Analog binding affinity was measured using a variant of Dd-NDPK (EI) as described (Schneider, 2000). […] The mutation N119S was inserted in EI in order to measure the nucleotide affinity by fluorescence titration.
(§5) Altered bases as compared to the wild type sequence are underlined in bold. Sequences were checked by automatic sequencing. The mutant EI-N119S was obtained by mutation of the previously described F64W-H122G mutated NDP kinase (here called EI) (Schneider 2000).

[4] = biological target: T3, Dictyostelium discoideum NDP kinase inactive variant EI-N119S (H122G-F64W-N119S) (Dictyostelium discoideum, UniProt P22887, F64W/H122G/N119S); test: biochemical; assay type: binding
T3 construct: made in house
Procedure: as §1, §4, §5

[5] = biological target: T4, Dictyostelium NDP Kinase N119S (Dictyostelium discoideum, UniProt P22887, N119S); test: Pre-steady-state fluorescence stopped-flow phosphotransfer from nucleoside triphosphates, N119S Dd-NDPK; assay type: biochemical; conditions: pre-steady state, stopped-flow; average of three determinations
T4 construct: made in house
Procedure: (§6) All numbers in italics have already been published (Schneider, 1998, 2000) The kinetic constants were measured at the pre-steady-state level using a fluorescence stopped-flow device. The binding constants were determined at equilibrium by recording the increase in fluorescence (Schneider, 2000). Values are the average of three independent determinations.
(§7) As the diphosphate form of analogs were not always available, the triphosphate analogs were used to study phosphate transfer in reaction as in Scheme I. Experiments were performed with an Hi-Tech DX2 microvolume stopped-flow reaction (Schneider, 1998) at Aexc=296 nm (for Ado derivatives) or […] (for other nucleotides), 2 mm excitation slit and a 320 nm cutoff filter at the emission. After mixing NDPK (1 μM) and NTP or an analogTP (10-500 μM), the intrinsic protein fluorescence was recorded for 10-200 sec. In each experiment, 400 pairs of data were recorded, and the data from 3-4 identical experiments were averaged and fitted to a number of non-linear analytical equations using the software provided by Hi-Tech. All curves fitted to single exponentials.
as §2
(§8) In both the forward and the reverse reactions, the product concentration remains very low, thus the product binding can be neglected, and the observed single step could be attributed to the phosphotransfer (Schneider, 1998). The rate of this observed single step is: [formula]
(§9) and reaches a limiting value (k+2) at NTP saturation. Saturation could not be obtained with the concentrations of any NTP used here. Therefore, catalytic efficiencies of phosphorylation (CEphos=k+2/(k−1/k+1)=k+2/KS) were measured, which are equivalent to second order constants and allow a reliable comparison of a variety of NDP kinase substrates.

[6] = biological target: T5, Dictyostelium discoideum NDP kinase (Dd-NDPK) variant N119S, SEQ ID NO: 1 (Dictyostelium discoideum, UniProt P22887, N119S); test: Pre-steady-state phosphotransfer, fluorescence stopped-flow; assay type: biochemical; conditions: catalytic efficiency of phosphotransfer, N119S, pre-steady state
T5 construct: made in house
Procedure: (§10) (A) Kinetics of reaction of phosphorylated Dictyostelium wild type and N119S NDP kinases by 100 μM Acyclovir diphosphate (Acy-DP). The phosphorylated enzyme was prepared with a stoichiometry #1 as described (Deville-Bonne 1996). The kinases were preincubated with ATP in excess in buffer T (50 mM Tris-HCl, pH 7.5, 5 mM MgCl2 and 75 mM KCl). The increase in fluorescence upon mixing the phospho-enzyme (1 μM, final concentration) with Acy-DP in buffer T at 20° C. was monitored with a stopped-flow. The solid lines represent the best fit of each curve to a monoexponential.
(§11) (B) Concentration dependence of the rate constant on Acy-DP concentation. The pseudo-first order rate constant for the reaction (kobs) was plotted against Acy-DP.
as §6
(§12) Wild type human NDPK-A and the mutants were expressed and purified according to Schneider et al., 2000, Mol Pharm. Recombinant wild type and mutant Dd-NDPK were obtained as described (Schneid, 1998a), except for N119Y NDP kinase which was partially purified by Q sepharose FF chromatography. Each protein was characterized by […] electrophoresis. The concentration of 17 kDa subunits of the enzyme was either determined by Bradford assay ([…]) or using an absorbance coefficient of ΔA^280=1.249 for a 1 mg/mL solution of human wild type and N115S NDPK-A, and =0.55 for wild type and mutant N119S, N119T Dd-NDP kinases, respectively.
as §7, §2, §8, §9

[7] = biological target: T6, Dictyostelium discoideum NDP kinase (Dd-NDPK), wild type (Dictyostelium discoideum, UniProt P22887); test: as above; assay type: biochemical; conditions: catalytic efficiency of phosphotransfer, wt
T6 construct: made in house
Procedure: as §10, §11, §6, §12, §7, §2, §8, §9

[8] = biological target: T7, Inactive-N119S Dd-NDPK (EI-N119S) (Dictyostelium discoideum, UniProt P22887, F64W/H122G/N119S); test: Equilibrium fluorescence titration of nucleotide binding, inactive Dd-NDPK variant with N119S; conditions: relative affinity of NTP for both enzymes
T7 construct: made in house
Procedure: as §6
In contrast to what is observed with natural nucleotides, the Ser mutation specifically improves the catalytic efficiency with nucleotides analogs as shown in Table I; ddGTPs and AZT-TP react, respectively, 1.5 and 4 times faster with the N119S enzyme. […] Analog binding affinity was measured using a variant of Dd-NDPK (EI) as described (Schneider, 2000). This mutant (H122G-F64W) lacks the catalytic histidine, and a tryptophan replaces the phenylalanine stacking on the base in the active site (Schneider, 2000). The mutation N119S was inserted in EI in order to measure the nucleotide affinity by fluorescence titration. The Ser contribution to the binding was evaluated from the relative affinity of NTP for both enzymes (Table I).
as §5, with “for N119S, N119T and N119Y mutations, respectively. Altered” for “Altered”

[9] = biological target: T8, human NDP kinase A (NDPK-A, nm23-H1), wild type (Homo sapiens, UniProt P15531); test: Pre-steady-state phosphotransfer, fluorescence stopped-flow; assay type: biochemical; conditions: catalytic efficiency of phosphotransfer, NDPK-A, pre-steady state
T8 construct: made in house
Procedure: (§13) FIG. 3 depicts the catalytic efficiency of NDPK-A and mutants for nucleoside analogs. The rates of phosphorylation of pure recombinant NDP kinases (1 μM) were measured at the pre-steady state in a fluorescence stopped-flow with d4T-TP (10 to 80 μM). The catalytic efficiency (expressed in M^−1s^−1) was determined from the variation of the rate as a function of analog as shown in FIG. 2 (▾, NDPK-A, ♦ L55H, ● N115S, ▪ L55H-N115S).
(§14) The activity assays were performed at the pre-steady state level.
as §12
as §7, with “Hi-Tech.” for “Hi-Tech. All curves fitted to single exponentials.”
as §2, §8, §3

[10] = biological target: T9, human NDP kinase A (NDPK-A) variant N115S, SEQ ID NO: 2 (Homo sapiens, UniProt P15531, N115S); test: as above; assay type: biochemical; conditions: N115S, pre-steady state
T9 construct: made in house; host or cells: E. coli
Procedure: as §13, §14
(§15) R, the specificity change, is the ratio of the catalytic efficiencies (for analog versus natural nucleotide) of the mutant compared to the wild type enzyme.
as §12
as §7, with “Hi-Tech.” for “Hi-Tech. All curves fitted to single exponentials.”
as §2, §8, §3

[11] = biological target: T10, human NDP kinase A (NDPK-A) variant L55H-N115S, SEQ ID NO: 3 (Homo sapiens, UniProt P15531, L55H/N115S); test: as above; assay type: biochemical; conditions: L55H-N115S, pre-steady state
T10 construct: made in house; host or cells: E. coli
Procedure: as §13, §14, §15, §12
as §7, with “Hi-Tech.” for “Hi-Tech. All curves fitted to single exponentials.”
as §2, §8, §3

[12] = biological target: T11, human NDP kinase A (NDPK-A) variant L55H (Homo sapiens, UniProt P15531, L55H); test: as above; assay type: biochemical; conditions: L55H, pre-steady state
T11 construct: made in house; host or cells: E. coli
Procedure: as §13, §14, §15, §12
as §7, with “Hi-Tech.” for “Hi-Tech. All curves fitted to single exponentials.”
as §2, §8, §3

[13] = Dd-NDPK mutant; cited from earlier work
[14] = Reactivity of Dd-NDPK Asn 119 mutants for nucleotide analogs; assay type: biochemical; conditions: Dd-NDPK mutant versus wild type
Source text: First, by site-directed mutagenesis, a limited set of amino acid substitutions (Ser, Thr, or Tyr) at the position of Asn 119 were introduced into the active site of Dd-NDPK. The three mutant proteins were expressed and purified to homogeneity, except N119Y, which was found unstable and poorly active (0.05% of wild type activity).

[15] = catalytic efficiency of phosphotransfer

T10 sequence (P15531 whole entry L55H/N115S): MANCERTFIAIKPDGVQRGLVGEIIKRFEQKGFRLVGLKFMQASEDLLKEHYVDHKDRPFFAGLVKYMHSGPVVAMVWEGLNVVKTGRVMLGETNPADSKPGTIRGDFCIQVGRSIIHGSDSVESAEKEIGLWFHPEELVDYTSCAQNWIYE
T4 sequence (P22887 whole entry N119S): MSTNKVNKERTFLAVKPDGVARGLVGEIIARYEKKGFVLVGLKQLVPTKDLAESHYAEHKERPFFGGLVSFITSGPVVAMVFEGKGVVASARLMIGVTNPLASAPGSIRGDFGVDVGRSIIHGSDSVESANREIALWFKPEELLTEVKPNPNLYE
T11 sequence (P15531 whole entry L55H): as the sequence (P15531 whole entry L55H/N115S) above, with S115N counted along it
T9 sequence (P15531 whole entry N115S): as the sequence (P15531 whole entry L55H/N115S) above, with H55L counted along it
T5 sequence (P22887 whole entry N119S): as the sequence (P22887 whole entry N119S) above
T1 sequence (P22887 whole entry): as the sequence (P22887 whole entry N119S) above, with S119N counted along it
T6 sequence (P22887 whole entry): as the sequence (P22887 whole entry N119S) above, with S119N counted along it
T2 sequence (P22887 whole entry F64W/H122G): as the sequence (P22887 whole entry N119S) above, with F64W, S119N, H122G counted along it
T3 sequence (P22887 whole entry F64W/N119S/H122G): as the sequence (P22887 whole entry N119S) above, with F64W, H122G counted along it
T8 sequence (P15531 whole entry): as the sequence (P15531 whole entry L55H/N115S) above, with H55L, S115N counted along it
T7 sequence (P22887 whole entry F64W/N119S/H122G): as the sequence (P22887 whole entry N119S) above, with F64W, H122G counted along it

In the case of `Nc1nc(Cl)nc2c1ncn2[C@H]1C[C@H](O)[C@@H](CO)O1` [CdA], the sensitivity of cells [1] is given as “enhanced sensitivity”.

In the case of `Nc1nc2c(ncn2[C@@H]2O[C@H](COP(=O)(O)OP(=O)(O)OP(=O)(O)O)[C@@H](O)[C@H]2O)c(=O)[nH]1` [GTP], the “k2/Ks wt (catalytic efficiency of phosphotransfer)” value [2] is reported as 8e+06 M⁻¹ s⁻¹, the Kd [3] is reported as 150 nM and the Kd [4] is reported as 1100 nM. For the same molecule, the “k2/Ks N119S (catalytic efficiency of phosphotransfer)” value (shortened to “k2/Ks N119S”) [5] was 700000 M⁻¹ s⁻¹, the k2/Ks [6] was 700000 M⁻¹ s⁻¹ and the k2/Ks [7] was 8e+06 M⁻¹ s⁻¹.

With `Nc1nc2c(ncn2COCCOP(=O)(O)OP(=O)(O)OP(=O)(O)O)c(=O)[nH]1` [acyclovirTP, acyclovir-TP] the “factor by which Ser 119 reinforces affinity (EI-N119S versus EI)” value [8] was 10 fold and the “k2/Ks N119S” value [5] was 1650 M⁻¹ s⁻¹.

For `Nc1nc2c(ncn2[C@@H]2O[C@H](CO)[C@@H](O)[C@@H]2O)c(=O)[nH]1` [araG], the sensitivity of cells [1] is given as “enhanced sensitivity”.

For `Nc1nc2c(ncn2[C@@H]2O[C@H](CO)[C@@H](O)C2(F)F)c(=O)[nH]1` [dFdG], the sensitivity of cells [1] is given as “enhanced sensitivity”.

With `Cc1cn([C@H]2C[C@H](O)[C@@H](COP(=O)(O)OP(=O)(O)OP(=O)(O)O)O2)c(=O)[nH]c1=O` [dTTP] the “k2/Ks wt (catalytic efficiency of phosphotransfer)” value [2] was 5.7e+06 M⁻¹ s⁻¹, the Kd [3] was 1200 nM and the Kd [4] was 5200 nM. The “k2/Ks N119S” value [5] was 430000 M⁻¹ s⁻¹, the k2/Ks [6] was 430000 M⁻¹ s⁻¹ and the k2/Ks [7] was 5.7e+06 M⁻¹ s⁻¹. For the same molecule, the k2/Ks [9] was 1.2e+06 M⁻¹ s⁻¹, the “factor of rate versus wild type NDPK-A” value [10] was 0.08 and the k2/Ks [10, 15] was 100000 M⁻¹ s⁻¹. The “factor of rate versus wild type NDPK-A” value [11] was 0.33, the k2/Ks [11, 15] was 450000 M⁻¹ s⁻¹ and the “factor of rate versus wild type NDPK-A” value [12] was 1.8. The k2/Ks [12, 15] was 2e+06 M⁻¹ s⁻¹.

B1: K16A: Dd-NDPK with Lys 16 mutated into Ala (Schneider 2001) (protein, UniProt P22887 1-155, looked up, variant K16A)
Nucleoside diphosphate …: MSTNKVNKERTFLAVAPDGVARGLVGEIIARYEKKGFVLVGLKQLVPTKDLAESHYAEHKERPFFGGLVSFITSGPVVAMVFEGKGVVASARLMIGVTNPLASAPGSIRGDFGVDVGRNIIHGSDSVESANREIALWFKPEELLTEVKPNPNLYE
For B1, the “factor of decrease of catalytic constant of phosphotransfer” value [13] is given as 100.

B2: N119A: Dd-NDPK with Asn 119 mutated into Ala (Schneider 2001) (protein, UniProt P22887 1-155, looked up, variant N119A)
Nucleoside diphosphate …: B1 Nucleoside diphosphate … with A16K, N119A
For B2, the “effect of mutation on kinetic parameters of the enzyme” value [13] is listed as “did not affect significantly”.

B3: N119T: Dd-NDPK with Thr at the position of Asn 119 (protein, UniProt P22887 1-155, looked up, variant N119T)
Nucleoside diphosphate …: B1 Nucleoside diphosphate … with A16K, N119T
For B3, the “enzyme reactivity for analogs” value [14] was “without effect”.
